Biological target: T1, AhbD (Methanosarcina barkeri, UniProt Q46CH7)
T1 sequence (Q46CH7 1-349): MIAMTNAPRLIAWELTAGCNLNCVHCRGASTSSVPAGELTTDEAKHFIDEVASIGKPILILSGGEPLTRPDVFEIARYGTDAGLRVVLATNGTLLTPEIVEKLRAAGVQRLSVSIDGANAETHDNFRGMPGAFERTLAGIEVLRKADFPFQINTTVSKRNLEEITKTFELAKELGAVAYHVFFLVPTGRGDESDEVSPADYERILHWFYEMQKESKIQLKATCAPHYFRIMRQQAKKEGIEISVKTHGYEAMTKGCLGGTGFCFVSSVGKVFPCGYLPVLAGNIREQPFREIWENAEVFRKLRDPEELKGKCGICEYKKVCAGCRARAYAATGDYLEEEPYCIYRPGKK
Experiment: tryptophan fluorescence quenching
Type: binding

SMILES: CC1=C(CCC(=O)O)c2cc3nc(cc4[nH]c(cc5[nH]c(cc1n2)c(C)c5CCC(=O)O)c(CCC(=O)O)c4C)C(CCC(=O)O)=C3C [COPRO III]
- Kd: 33.9 ± 3.9 µM

Reference: publication PMC6013774 (Chemical Science, 2016)
